Test results published in PubChem BioAssay AID256 (DTP/NCI, 2004).
“And” between values parts separate entries of the source, which are not always exact repeats. Equal values may be shown once. Toxic doses and inconclusive results are not listed. How the source made its calls: active means survival T/C of 150% or more; inactive means T/C below 125% in these data.

Tested on: CD2F1 mice, L1210 leukemia ip, survival T/C
Assay: NCI In Vivo Anticancer Drug Screen. Data for tumor model L1210 Leukemia (intraperitoneal) in CD2F1 (CDF1) mice
Settings: higher = longer survival
Procedure, shortened: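 Activity against a transplanted murine tumor was judged by comparing the compound group with a vehicle group. The outcome in the treated animals was divided by that in the controls.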

[1] = endpoint: mean survival time, dose: 100.0 mg/kg/injection, schedule: Q01DX009 (ip), vehicle: saline with Tween-80
[2] = endpoint: mean survival time, dose: 200.0 mg/kg/injection, schedule: Q01DX009 (ip), vehicle: saline with Tween-80
[3] = endpoint: mean survival time, dose: 400.0 mg/kg/injection, schedule: Q01DX009 (ip), vehicle: saline with Tween-80
[4] = endpoint: mean survival time, dose: 100.0 mg/kg/injection, schedule: Q01DX001 (ip), vehicle: saline with Tween-80
[5] = endpoint: mean survival time, dose: 100.0 mg/kg/injection, schedule: Q04DX003 (ip), vehicle: saline with Tween-80
[6] = endpoint: mean survival time, dose: 200.0 mg/kg/injection, schedule: Q04DX003 (ip), vehicle: saline with Tween-80
[7] = endpoint: mean survival time, dose: 400.0 mg/kg/injection, schedule: Q04DX003 (ip), vehicle: saline with Tween-80
[8] = endpoint: mean survival time, dose: 25.0 mg/kg/injection, schedule: Q01DX009 (ip), vehicle: saline with Tween-80
[9] = endpoint: mean survival time, dose: 50.0 mg/kg/injection, schedule: Q01DX009 (ip), vehicle: saline with Tween-80

Measured: T/C

CC1CC(C)(C)NC1=O (centres undefined)
inactive: endpoint: mean survival time, dose: 6.25 mg/kg/injection, schedule: Q04DX003 (ip), vehicle: saline 103 % of control | endpoint: mean survival time, dose: 12.5 mg/kg/injection, schedule: Q04DX003 (ip), vehicle: saline 104 % of control | endpoint: mean survival time, dose: 25.0 mg/kg/injection, schedule: Q04DX003 (ip), vehicle: saline 95 % of control

CCCCN=C=C(c1ccccc1)c1ccccc1
inactive: endpoint: mean survival time, dose: 25.0 mg/kg/injection, schedule: Q04DX002 (ip), vehicle: other 97 % of control | endpoint: mean survival time, dose: 50.0 mg/kg/injection, schedule: Q04DX002 (ip), vehicle: other 86 % of control | endpoint: mean survival time, dose: 100.0 mg/kg/injection, schedule: Q04DX002 (ip), vehicle: other 89 % of control

c1cc2nc(c1)CSCCCCCCCCSC2
inactive: [1] 88 % of control | [2] 91 % of control | [3] 95 % of control

C[n+]1ccc(Nc2ccc(NC(=O)c3ccc(Nc4ccnc5ccc([N+](=O)[O-])cc45)cc3[N+](=O)[O-])cc2)cc1
inactive: [4] 96 % of control | endpoint: mean survival time, dose: 200.0 mg/kg/injection, schedule: Q01DX001 (ip), vehicle: saline with Tween-80 95 % of control | endpoint: mean survival time, dose: 400.0 mg/kg/injection, schedule: Q01DX001 (ip), vehicle: saline with Tween-80 93 % of control

OC1CCCCC12CC2 (centres undefined)
inactive: [5] 102 % of control | [6] 104 % of control | [7] 113 % of control

O=C(N/N=C/c1cccc([N+](=O)[O-])c1)c1ccc(Cl)cc1Cl
inactive: [1] 100 % of control | [2] 97 % of control | [3] 100 % of control

O=C(c1ccccc1)C(Sc1ccccc1)c1ccccc1 (centres undefined)
inactive: [5] 97 % of control | [6] 101 % of control | [7] 97 % of control

NC(=O)CC(C1SCCCS1)N1C(=O)OC2C(O)C(CO)OC21 (centres undefined)
inactive: endpoint: mean survival time, dose: 10.94 mg/kg/injection, schedule: Q01DX005 (ip), vehicle: water 100 % of control | endpoint: mean survival time, dose: 21.88 mg/kg/injection, schedule: Q01DX005 (ip), vehicle: water 93 % of control | endpoint: mean survival time, dose: 43.75 mg/kg/injection, schedule: Q01DX005 (ip), vehicle: water 98 % of control | endpoint: mean survival time, dose: 87.5 mg/kg/injection, schedule: Q01DX005 (ip), vehicle: water 100 % of control | endpoint: mean survival time, dose: 175.0 mg/kg/injection, schedule: Q01DX005 (ip), vehicle: water 90 % of control

CC12CCC(=O)C=C1CCC1C2CCC2(C)C(C(=O)O)CCC12 (centres undefined)
inactive: [5] 102 % of control | [6] 96 % of control

CC(=O)NC(CCc1ccc(Cl)c(Cl)c1)c1cccc(O)c(=O)c1 (centres undefined)
inactive: endpoint: median survival time, dose: 3.12 mg/kg/injection, schedule: Q01DX009 (ip), vehicle: Klucel (hydroxypropylcellulose) (HPC) 94 % of control | endpoint: median survival time, dose: 6.25 mg/kg/injection, schedule: Q01DX009 (ip), vehicle: Klucel (hydroxypropylcellulose) (HPC) 100 % of control | endpoint: median survival time, dose: 12.5 mg/kg/injection, schedule: Q01DX009 (ip), vehicle: Klucel (hydroxypropylcellulose) (HPC) 106 % of control | endpoint: median survival time, dose: 25.0 mg/kg/injection, schedule: Q01DX009 (ip), vehicle: Klucel (hydroxypropylcellulose) (HPC) 102 % of control | endpoint: median survival time, dose: 50.0 mg/kg/injection, schedule: Q01DX009 (ip), vehicle: Klucel (hydroxypropylcellulose) (HPC) 103 % of control | endpoint: median survival time, dose: 100.0 mg/kg/injection, schedule: Q01DX009 (ip), vehicle: Klucel (hydroxypropylcellulose) (HPC) 116 % of control

O=C(O)CC(=O)O.[NH-]CC(O)C[N-]CC(O)CN.[Pt+2] (centres undefined)
inactive: endpoint: median survival time, dose: 10.0 mg/kg/injection, schedule: Q04DX003 (ip), vehicle: distilled water + Tween-80 101 % of control | endpoint: median survival time, dose: 20.0 mg/kg/injection, schedule: Q04DX003 (ip), vehicle: distilled water + Tween-80 101 % of control | endpoint: median survival time, dose: 40.0 mg/kg/injection, schedule: Q04DX003 (ip), vehicle: distilled water + Tween-80 104 % of control | endpoint: median survival time, dose: 66.5 mg/kg/injection, schedule: Q04DX003 (ip), vehicle: distilled water + Tween-80 107 % of control | endpoint: median survival time, dose: 80.0 mg/kg/injection, schedule: Q04DX003 (ip), vehicle: distilled water + Tween-80 106 % of control and 108 % of control | endpoint: median survival time, dose: 133.0 mg/kg/injection, schedule: Q04DX003 (ip), vehicle: distilled water + Tween-80 108 % of control | endpoint: median survival time, dose: 160.0 mg/kg/injection, schedule: Q04DX003 (ip), vehicle: distilled water + Tween-80 119 % of control | endpoint: median survival time, dose: 266.0 mg/kg/injection, schedule: Q04DX003 (ip), vehicle: distilled water + Tween-80 117 % of control | endpoint: median survival time, dose: 320.0 mg/kg/injection, schedule: Q04DX003 (ip), vehicle: distilled water + Tween-80 117 % of control

CC(C)C(=O)C(C)(C)C(=O)N1CCCC1
inactive: endpoint: mean survival time, dose: 100.0 mg/kg/injection, schedule: Q01DX009 (ip), vehicle: saline 92 % of control | endpoint: mean survival time, dose: 200.0 mg/kg/injection, schedule: Q01DX009 (ip), vehicle: saline 103 % of control | endpoint: mean survival time, dose: 400.0 mg/kg/injection, schedule: Q01DX009 (ip), vehicle: saline 91 % of control

COc1ccc(CC2=NCCN2)cc1
inactive: [8] 98 % of control | [9] 98 % of control | [1] 98 % of control

COC(=O)N1c2ccc(OC)cc2C=CC1C#N (centres undefined)
inactive: [1] 94 % of control | [5] 96 % of control | [2] 95 % of control | [6] 102 % of control | [3] 103 % of control | [7] 94 % of control

CCCCNC(=O)C1CC2c3cccc4[nH]cc(c34)CC2N(C)C1 (centres undefined)
inactive: endpoint: mean survival time, dose: 50.0 mg/kg/injection, schedule: Q04DX003 (ip), vehicle: saline with Tween-80 88 % of control | [5] 91 % of control

Nc1ncn[nH]1
inactive: endpoint: mean survival time, dose: 200.0 mg/kg/injection, schedule: Q01DX009 (ip), vehicle: Klucel (hydroxypropylcellulose) (HPC) 95 % of control | endpoint: mean survival time, dose: 400.0 mg/kg/injection, schedule: Q01DX009 (ip), vehicle: Klucel (hydroxypropylcellulose) (HPC) 106 % of control

O=c1ccnc[nH]1
inactive: endpoint: mean survival time, dose: 100.0 mg/kg/injection, schedule: Q04DX003 (ip), vehicle: saline sonified 93 % of control | endpoint: mean survival time, dose: 200.0 mg/kg/injection, schedule: Q04DX003 (ip), vehicle: saline sonified 104 % of control | endpoint: mean survival time, dose: 400.0 mg/kg/injection, schedule: Q04DX003 (ip), vehicle: saline sonified 104 % of control

COC(=O)c1cc(Br)c(I)c([N+](=O)[O-])c1
inactive: [1] 102 % of control | [5] 95 % of control | [2] 108 % of control | [6] 106 % of control | [3] 105 % of control | [7] 97 % of control

Cc1csc(C)[n+]1C
inactive: endpoint: mean survival time, dose: 25.0 mg/kg/injection, schedule: Q01DX009 (ip), vehicle: saline sonified 102 % of control | endpoint: mean survival time, dose: 50.0 mg/kg/injection, schedule: Q01DX009 (ip), vehicle: saline sonified 104 % of control | [4] 100 % of control | endpoint: mean survival time, dose: 100.0 mg/kg/injection, schedule: Q01DX009 (ip), vehicle: saline sonified 98 % of control

COc1ccc(C(=O)CC(C#N)c2ccc(OC)c(OC)c2)cc1OC (centres undefined)
inactive: [5] 98 % of control | [6] 101 % of control | [7] 98 % of control

O=C(CNC(=O)Nc1cccc([N+](=O)[O-])c1)N/N=C/C=C/c1ccccc1
inactive: [9] 88 % of control | [2] 88 % of control

O=C([S-])N1CCCCC1.O=C([S-])N1CCCCC1.[Ni+2]
inactive: endpoint: mean survival time, dose: 12.5 mg/kg/injection, schedule: Q01DX009 (ip), vehicle: saline with Tween-80 96 % of control | endpoint: mean survival time, dose: 12.5 mg/kg/injection, schedule: Q04DX003 (ip), vehicle: saline sonified 100 % of control | [8] 93 % of control | endpoint: mean survival time, dose: 25.0 mg/kg/injection, schedule: Q04DX003 (ip), vehicle: saline sonified 113 % of control | [9] 106 % of control | endpoint: mean survival time, dose: 50.0 mg/kg/injection, schedule: Q04DX003 (ip), vehicle: saline sonified 92 % of control

O=C1C=CC(=O)N1c1ccc(Cl)cc1 (tested in a mixture with another compound)
inactive: [1] 93 % of control | [2] 87 % of control | [3] 98 % of control

COC(=O)C#CC(c1ccccc1)(c1ccccc1)c1ccccc1
inactive: [1] 103 % of control | [2] 101 % of control | [3] 109 % of control
